For 61 compounds, Ki results are on record in patent US5872138A, “Thrombin inhibitors” (Merck & Co., Inc., priority 1997, dated 1999).

pKi: −log10 of the molar value. Structures can show the parent of a compound that is named as a salt.

One experiment has as its target T1, human a-thrombin (Homo sapiens, UniProt P00734).
T1 construct: human a-thrombin
The experiment in a line: In vitro assay for determining proteinase inhibition (thrombin Ki). Type of experiment: biochemical. Conditions: Table 2; 25° C., pH 7.4; read-out: Ki (thr). As to the method: In vitro assay for determining proteinase inhibition Assays of human a-thrombin and human trypsin were performed at 25° C. in 0.05M TRIS buffer pH 7.4, 0.15M NaCl, 0.1% PEG. Trypsin assays also contained 1 mM CaCl2. In assays wherein rates of hydrolysis of a p-nitroanilide (pna) substrate were determined, a Thermomax 96-well plate reader was used to measure (at 405 nm) the time dependent appearance of p-nitroaniline. […] Activity assays were performed by diluting a stock solution of substrate at least tenfold to a final concentration 0.5 Km into a solution containing enzyme or enzyme equilibrated with inhibitor. Times required to achieve equilibration between enzyme and inhibitor were determined in control experiments. Initial velocities of product formation in the absence (Vo) or presence of inhibitor (Vi) were measured. Assuming competitive inhibition, and that unity is negligible compared Km /[S], […] (where [S], [I], and e respectively represent the total concentrations, of substrate, inhibitor and enzyme), the equilibrium constant (Ki) for dissociation of the inhibitor from the enzyme can be obtained from the dependence of Vo /Vi on [I] shown in equation 1.
For `c1ccc(CSc2ccc(CNc3ccncc3)cc2)cc1`, the pKi is less than 6.00.

Turning to `CC(Oc1ccc(CNc2ccncc2)cc1)c1ccccc1` (stereo not shown), the pKi is less than 6.00.

For `CC(C)C(Oc1ccc(CNc2ccncc2)cc1)c1ccccc1` (stereo not shown) [4-[4-(2-methyl-1-phenylpropoxy)benzylamino]pyridine], the pKi is less than 6.00.

Take `CCC(Oc1ccc(CNc2ccncc2)cc1)c1ccccc1` (stereo not shown): the pKi is less than 6.00.

With `c1ccc(C(Oc2ccc(CNc3ccncc3)cc2)c2ccccc2)cc1` [N-4-(1,1-diphenylmethoxy)benzylaminopyridine], the pKi was less than 6.00.

For `c1cc(NCc2ccc(OCCCCC3CCCCC3)cc2)ccn1`, the pKi was less than 6.00.

Regarding `c1ccc(CC(Cc2ccccc2)Oc2ccc(CNc3ccncc3)cc2)cc1` [4-[4-(1,3-diphenyl-2-propoxy)benzylamino]pyridine], the pKi was less than 6.00.

On to `CC(C)C(Oc1ccc(CNc2ccncc2)cc1)c1ccc2c(c1)OCO2` (stereo not shown), for which the pKi is less than 6.00.

Take `c1cc(NCc2ccc(OC(C3CCCCC3)C3CC3)cc2)ccn1` (stereo not shown): the pKi was 6.00 to 7.00.

Turning to `c1cc(NCc2ccc(OCc3ccc4c(c3)OCO4)cc2)ccn1` [4-[4-(3,4-methylenedioxybenzyloxy)benzylamino]pyridine], the pKi is less than 6.00.

With `c1cc(NCc2ccc(OC(C3CCCCC3)C3CCCCC3)cc2)ccn1` [4-[4-(dicyclohexylmethoxy)-benzylamino]pyridine], the pKi is less than 6.00.

With `c1ccc(C(COc2ccc(CNc3ccncc3)cc2)c2ccccc2)cc1` [4-[4-(2,2-diphenylethoxy)benzylamino]pyridine], the pKi was less than 6.00.

Take `c1cc(NCc2ccc(OCC(C3CCCCC3)C3CCCCC3)cc2)ccn1`: the pKi was less than 6.00.

On to `c1cc(NCc2ccc(OCC3CCCCC3)cc2)ccn1` [N-4-(cyclohexylmethoxy)benzylaminopyridine], for which the pKi is less than 6.00.

`COC(=O)C(Oc1ccc(CNc2ccncc2)cc1)c1ccccc1` (stereo not shown): the pKi is less than 6.00.

For `c1cc(NCc2ccc(OCCC3CCCCC3)cc2)ccn1` [4-[4-(2-cyclohexylethoxy)benzylamino]pyridine], the pKi was less than 6.00.

As for `NC(=O)C(Oc1ccc(CNc2ccncc2)cc1)c1ccccc1` (stereo not shown), the pKi was less than 6.00.

On to `c1ccc(CNc2ccc(CNc3ccncc3)cc2)cc1`, for which the pKi is less than 6.00.

Regarding `c1ccc(C(Oc2ccc(CNc3ccncc3)cc2)C2CCCCC2)cc1` (stereo not shown), the pKi is less than 6.00.

The same experiment, now with this note: Table 3; 25° C., pH 7.4; read-out: Ki(th).
As to `CCCc1cc(CNc2ccncc2)ccc1OCc1ccccc1`, the negative logarithm of the Ki (pKi) was 5.74.

Take `CC(C)CCc1cc(CNc2ccncc2)ccc1OCC1CCCCC1` [drawing 160]: the pKi was 5.49.

In the case of `CCCc1cc(CNc2ccncc2)ccc1OC(Cc1ccccc1)C(C)C` (stereo not shown), the pKi was 6.30.

Turning to `OCCc1cc(CNc2ccncc2)ccc1OCC1CCCCC1`, the pKi was 5.36.

For `CCCc1cc(CNc2ccncc2)ccc1OCC12CC3CC(CC(C3)C1)C2`, the pKi was 6.66.

Regarding `c1cc(NCc2ccc(OCC3CCCCC3)c(C3CC3)c2)ccn1`, the pKi was 5.49.

For `C=Cc1cc(CNc2ccncc2)ccc1OCC1CCCCC1`, the pKi was 6.59.

As to `CCCc1cc(CNc2ccncc2)c(Cc2ccccc2)cc1OCC1CCCCC1`, the pKi was less than 6.05.

For the compound `CCCc1cc(CNc2ccncc2)ccc1OCc1ccc(OC)cc1`, the pKi is 5.74.

With `COc1cc(OCC2CCCCC2)ccc1CNc1ccncc1`, the negative logarithm of the Ki (pKi) was 5.49.

Take `CCCc1cc(CNc2ccncc2)ccc1OC(c1ccccc1)c1ccccc1`: the negative logarithm of the Ki (pKi) is 6.49.

`CCCc1cc(CNc2ccncc2)ccc1OC(c1ccccc1)C1CC1` (stereo not shown): the pKi is 6.10.

On to `c1ccc(COc2cc(OCC3CCCCC3)ccc2CNc2ccncc2)cc1` [4-(4-cyclohexylmethyloxy-2-benzyloxybenzyl)aminopyridine], for which the pKi is 5.74.

Take `CCCc1cc(CNc2ccncc2)ccc1OCC1CCCCC1` [4-{[3-propyl-4-(cyclohexylmethyloxy)phenyl]methylamino}pyridine]: the pKi is 6.30.

Consider `c1ccc(Cc2cc(OCC3CCCCC3)ccc2CNc2ccncc2)cc1` [4'-(4-cyclohexylmethyloxy-2-benzylphenylmethyl)-aminopyridine], for which the pKi was 5.74.

With `Nc1cc(CNc2ccncc2)ccc1OCC1CCCCC1` [4-{[3-amino-4-(cyclohexylmethyloxy)phenyl]methylamino}pyridine dihydrochloride], the negative-log Ki (pKi) is 5.54.

On to `c1ccc(-c2cc(OCC3CCCCC3)ccc2CNc2ccncc2)cc1`, for which the pKi is 5.19.

The same experiment, now with this note: Table 4; 25° C., pH 7.4; read-out: Ki (thr).
On to `CCCc1cc(CNc2ccncc2)cc(CN2CCCCC2)c1OCC1CCCCC1`, for which the negative-log Ki (pKi) was 5.00 to 6.00.

With `CCCc1cc(CNc2ccncc2)ccc1OCC1CC2C=CC1C2` (stereo not shown), the negative logarithm of the Ki (pKi) was 6.00 to 7.00.

For `CCCc1cc(CNc2ccncc2C)ccc1OCC1CCCCC1`, the pKi is 5.00 to 6.00.

`CC(C)(C)OCCc1cc(CNc2ccncc2)ccc1OCC1CCCCC1`: the pKi is less than 5.00.

Regarding `NCc1cc(CNc2ccncc2)ccc1OCC1CCCCC1`, the negative-log Ki (pKi) is less than 5.00.

On to `CCCc1cc(CNc2ccncc2)ccc1OCCC(C)C` [i-butyl], for which the negative logarithm of the Ki (pKi) is 5.00 to 6.00.

Turning to `OCc1cc(CNc2ccncc2)ccc1OCC1CCCCC1`, the pKi is less than 5.00.

With `CCCc1cc(CNc2ccncc2)ccc1OCc1cccc2ccccc12`, the pKi is 5.00 to 6.00.

In the case of `CC(C)CCc1cc(CNc2ccncc2)ccc1OCC1CCCCC1` [drawing 174], the negative logarithm of the Ki (pKi) is 5.00 to 6.00.

For `c1ccc(-c2cc(CNc3ccncc3)ccc2OCC2CCCCC2)cc1`, the pKi was less than 5.00.

On to `CNCc1cc(CNc2ccncc2)ccc1OCC1CCCCC1`, for which the pKi was 5.00 to 6.00.

Still in this experiment, the particulars now being: Table 6; 25° C., pH 7.4; read-out: Ki(thr).
For `CCCc1cc(Cc2ccc(C(=N)N)cc2)ccc1OCC1CCCCC1`, the pKi is 6.52.

Regarding `CCc1cc(Cc2ccc(C(=N)N)cc2)ccc1OC(C(C)C)C1CCCCC1` (stereo not shown), the negative-log Ki (pKi) was 7.70.

In the case of `N=C(N)c1ccc(Cc2ccc(OCC3CCCCC3)cc2)cc1` [4-{[4-(Cyclohexylmethyloxy)phenyl]methyl}-benzamidine hydrochloride], the pKi was 6.77.

For the compound `CCc1cc(Cc2ccc(C(=N)N)cc2)ccc1OCC1CCCCC1`, the negative logarithm of the Ki (pKi) was 7.11.

Staying with this experiment, now noted: Table 7; 25° C., pH 7.4; read-out: Ki(thr).
Take `c1ccc(OCc2ccc(CNc3ccncc3)cc2)cc1`: the pKi was 5.00 to 6.00.

Consider `c1cc(NCc2ccc(CCC3CCCCC3)cc2)ccn1`, for which the pKi is 5.00 to 6.00.

Still in this experiment, the particulars now being: Table I; 25° C., pH 7.4; read-out: Ki (thr).
On to `Nc1cc[n+](Cc2ccc(OCc3ccccc3)cc2)cc1`, for which the negative-log Ki (pKi) was 6.00 to 7.00.

`COc1cc(C[n+]2ccc(N)cc2)ccc1OCc1ccccc1`: the pKi was less than 6.00.

`Nc1cc[n+](Cc2ccc(OCC(c3ccccc3)c3ccccc3)cc2)cc1` [4-amino-1-[4-(2,2-diphenylethoxy)benzyl]pyridinium bromide]: the pKi was 6.00 to 7.00.

Regarding “4-amino-1-(4-(1-phenyl-1-carbomethoxy)methoxybenzyl)pyridinium bromide”, the pKi was 6.00 to 7.00.

For the compound `Nc1cc[n+](Cc2ccc(OC(c3ccccc3)c3ccccc3)cc2)cc1` [4-amino-1-(4-(1,1-diphenylmethoxy)benzylpyridinium bromide], the pKi was greater than 7.00.

As to `Nc1cc[n+](Cc2ccc(OC(C3CCCCC3)C3CCCCC3)cc2)cc1` [4-amino-1-[4-(dicyclohexylmethoxy)benzyl]pyridinium bromide], the pKi is 6.00 to 7.00.

Regarding `Nc1cc[n+](Cc2ccc(-c3ccccc3)cc2)cc1`, the pKi is less than 6.00.

As to `Nc1cc[n+](Cc2ccc(OCC(C3CCCCC3)C3CCCCC3)cc2)cc1` [4-amino-1-(4-(2,2-dicyclohexyl-1-ethoxy)benzyl)pyridinium bromide], the negative-log Ki (pKi) is 6.00 to 7.00.

One may read the pKi as the Ki on a negative log10 scale, so that one unit is a factor of ten.
